In patent publication US11214803B2, “Modulators of YAP1 expression” (Ionis Pharmaceuticals, Inc., priority 2019, dated 2022):
Strand notation (5' to 3'): a small letter for the sugar, then the base; units joined by * are phosphorothioate-linked, units joined directly phosphodiester-linked; [ ] holds rarer units or linkages, { } end groups; capitals alone tell only the bases. e = 2'-O-(2-methoxyethyl) (MOE); k = constrained ethyl (cEt); [5mC] = 5-methylcytosine; d = 2'-deoxy (DNA); m = 2'-O-methyl

Test system: Yap1 mRNA
Assay: Antisense inhibition of human Yap1 in SNU-449 cells by modified oligonucleotides, single dose (Example 5, RTS36584)
Format: cell-based
Outline: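 SNU-449 cells (10,000/well) took up 2,000 nM oligonucleotide by free uptake for about 48 h. Yap1 mRNA was measured by qRT-PCR with primer probe set RTS36584 and normalised to RIBOGREEN total RNA. Values are % of untreated control; asterisked oligos target the amplicon region.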

[1] = Table 45, Yap1 mRNA as percent of untreated control, SNU-449 cells, single dose
[2] = Table 39, SNU-449 cells, 10,000 cells per well, free uptake, 2,000 nM oligonucleotide, approx. 48 hours, RTS36584, normalized to RIBOGREEN, Yap1 mRNA relative to untreated control
[3] = Table 48, Yap1 mRNA level relative to untreated control, modified oligonucleotides targeting SEQ ID NO.: 1 and 2
[4] = Table 49, Yap1 mRNA level relative to untreated control, modified oligonucleotides targeting SEQ ID NO.: 1 and 2
[5] = Table 46, Yap1 mRNA as percent of untreated control, SNU-449 cells, single dose
[6] = Table 52, Yap1 mRNA, modified oligonucleotides targeting SEQ ID NO: 1 and 2
[7] = Table 41, SNU-449 cells, 10,000 cells per well, free uptake, 2,000 nM modified oligonucleotide, approximately 48 hours, RTS36584, normalized to RIBOGREEN, Yap1 mRNA relative to untreated control cells
[8] = Yap1 mRNA, percent of untreated control, modified oligonucleotides targeting SEQ ID NO: 1 and 2, Table 47
[9] = Table 44 experiment, SNU-449 cells, 10,000 cells per well, free uptake, 2,000 nM, approximately 48 hours, RTS36584, Yap1 mRNA normalized to RIBOGREEN, relative to untreated control cells
[10] = Table 42 (separate experiment), SNU-449 cells, 10,000 cells per well, free uptake, 2,000 nM modified oligonucleotide, approximately 48 hours, RTS36584, normalized to RIBOGREEN, Yap1 mRNA relative to untreated control cells
[11] = Table 51, Yap1 mRNA remaining as percent of untreated control (UT), SNU-449 cells, single dose
[12] = Table 43 experiment, SNU-449 cells, 10,000 cells per well, free uptake, 2,000 nM, approximately 48 hours, RTS36584, Yap1 mRNA normalized to RIBOGREEN, relative to untreated control cells
[13] = Table 40 (separate experiment), SNU-449 cells, 10,000 cells per well, free uptake, 2,000 nM oligonucleotide, approx. 48 hours, RTS36584, normalized to RIBOGREEN, Yap1 mRNA relative to untreated control

1198935 (kG*kA*dT*dT*dT*dA*dG*dG*dA*dT*dG*k[5mC]*dA*kT*dG*kG; antisense) [Compound 1198935]
YAP1 (% UTC) [1]: 18 % UTC

1198424 (k[5mC]*dT*d[5mC]*dT*dT*dA*dT*dA*dT*dG*dG*kT*eT*kT*eT*kG; antisense) [Compound 1198424]
YAP1 (% UTC) [2]: 15 % UTC

1197215 (antisense kA*kA*kG*dT*dG*dT*dA*dT*dG*dT*d[5mC]*dA*dG*kA*kA*kG) [Compound 1197215]
YAP1 (% UT) [3]: 13 % UT

1198543 (antisense kA*kT*kT*dG*dT*d[5mC]*dT*d[5mC]*dA*dT*dG*d[5mC]*k[5mC]*kT*kT*eA) [Compound 1198543]
YAP1 (% UT) [4]: 15 % UT

1198844 (kA*kT*dA*dG*dT*dG*d[5mC]*dT*dT*dT*dG*kG*eA*kA*eG*kA; antisense) [Compound 1198844]
YAP1 (% UT) [5]: 56 % UT

1200849 (kA*kA*kT*dA*dT*mU*dG*d[5mC]*dA*dA*dT*d[5mC]*dT*kG*kT*k[5mC]; antisense) [Compound 1200849]
YAP1 (% UT) [6]: 53 % UT

1198634 (kT*kG*dG*dA*dA*dA*dT*dT*dG*dT*d[5mC]*dT*k[5mC]*eA*kT*eG; antisense) [Compound 1198634]
YAP1 (% UTC) [7]: 34 % UTC

1200829 (kA*kG*kG*dA*dT*mG*d[5mC]*dA*dT*dG*dG*dT*dT*kT*kT*kT; antisense) [Compound 1200829]
YAP1 (% UT) [6]: 49 % UT

1197198 (antisense kA*kT*kT*d[5mC]*dA*dG*dA*dT*dT*dT*dA*dG*dG*kA*kT*kG) [Compound 1197198]
YAP1 (% UT) [8]: 139 % UT

1198531 (k[5mC]*kT*dT*dT*dA*dA*dA*dG*dT*dG*dT*eA*kT*eG*kT*e[5mC]; antisense) [Compound 1198531]
YAP1 (% UTC) [9]: 21 % UTC

1200873 (kT*kT*kA*dG*dA*mC*dT*dA*dA*dG*dT*dA*dA*kG*kG*kT; antisense) [Compound 1200873]
YAP1 (% UT) [6]: 55 % UT

1198349 (kA*kT*kG*dT*dA*dA*dT*dA*dT*dT*dG*d[5mC]*kA*eA*kT*e[5mC]) [Compound 1198349]
YAP1 (% UT) [4]: 85 % UT

1198222 (kT*kT*dT*dT*dA*d[5mC]*dA*dT*dT*dA*dG*eG*eA*eA*k[5mC]*kA) [Compound 1198222]
YAP1 (% UTC) [10]: 87 % UTC

1198672 (antisense kA*kT*dT*dT*dA*dG*dG*dA*dT*dG*d[5mC]*dA*kT*eG*kG*eT) [Compound 1198672]
YAP1 (% UTC) [7]: 41 % UTC

1198514 (kG*kA*d[5mC]*dA*dA*d[5mC]*dT*d[5mC]*dT*dT*dA*eT*kA*eT*kG*eG; antisense) [Compound 1198514]
YAP1 (% UTC) [9]: 53 % UTC

1200819 (kT*kT*kA*dA*dG*mC*dA*d[5mC]*dT*dT*dT*dT*dA*k[5mC]*kA*kT; antisense) [Compound 1200819]
YAP1 (% UT) [6]: 101 % UT

1198617 (antisense k[5mC]*kT*kT*dT*dA*dA*dA*dG*dT*dG*dT*dA*kT*kG*kT*e[5mC]) [Compound 1198617]
YAP1 (% UT) (Table 50, Yap1 mRNA remaining as percent of untreated control (UT), SNU-449 cells, single dose): 34 % UT

1200816 (kG*k[5mC]*kA*d[5mC]*dT*mU*dT*dT*dA*d[5mC]*dA*dT*dT*kA*kG*kG; antisense) [Compound 1200816]
YAP1 (% UT) [6]: 37 % UT

1200808 (kA*k[5mC]*kT*dG*dA*mG*dG*dT*dA*dT*dA*dA*d[5mC]*kT*kG*kG; antisense) [Compound 1200808]
YAP1 (% UT) [6]: 45 % UT

1197269 (kT*kA*kA*dA*mG*dT*dG*dT*dA*dT*dG*dT*d[5mC]*kA*kG*kA) [Compound 1197269]
YAP1 (% UT) [11]: 3 % UT

1097247 (antisense kT*kA*kA*dA*dG*dT*dG*dT*dA*dT*dG*dT*d[5mC]*kA*kG*kA) [Compound 1097247]
YAP1 (% UT) [3]: 9 % UT

1197224 (antisense kA*k[5mC]*kT*dA*dA*dG*dT*dA*dA*dG*dG*dT*dT*kT*k[5mC]*k[5mC]) [Compound 1197224]
YAP1 (% UT) [8]: 24 % UT

1198331 (k[5mC]*kA*kG*dA*dT*dT*dT*dA*dG*dG*dA*dT*kG*e[5mC]*kA*eT; antisense) [Compound 1198331]
YAP1 (% UT) [3]: 26 % UT

1198858 (k[5mC]*kT*d[5mC]*dT*dT*dA*dT*dA*dT*dG*dG*kT*eT*kT*eT*kG) [Compound 1198858]
YAP1 (% UT) [8]: 29 % UT

1198264 (kT*kA*dT*dG*dT*dA*dA*dT*dA*dT*dT*eG*e[5mC]*eA*kA*kT; antisense) [Compound 1198264]
YAP1 (% UTC) [12]: 73 % UTC

1198961 (kA*kA*dA*dG*dT*dG*dT*dA*dT*dG*dT*k[5mC]*dA*kG*dA*kA; antisense) [Compound 1198961]
YAP1 (% UTC) [1]: 12 % UTC

1198683 (antisense kA*k[5mC]*dT*d[5mC]*dT*dT*dA*dT*dA*dT*dG*dG*kT*eT*kT*eT) [Compound 1198683]
YAP1 (% UTC) [10]: 27 % UTC

1200858 (kA*kA*kG*dT*dG*mU*dA*dT*dG*dT*d[5mC]*dA*dG*kA*kA*kG; antisense) [Compound 1200858]
YAP1 (% UT) [6]: 10 % UT

1198871 (kT*kT*dT*dA*dT*dG*dT*dA*dA*dT*dA*kT*eT*kG*e[5mC]*kA; antisense) [Compound 1198871]
YAP1 (% UT) [5]: 77 % UT

1198325 (kA*kG*kG*dA*dT*dG*d[5mC]*dA*dT*dG*dG*dT*kT*eT*kT*eT; antisense) [Compound 1198325]
YAP1 (% UT) [3]: 34 % UT

1198524 (kT*kG*dT*dA*dT*dG*dT*d[5mC]*dA*dG*dA*eA*kG*eA*kG*eT; antisense) [Compound 1198524]
YAP1 (% UTC) [9]: 3 % UTC

1198456 (kT*kG*dT*d[5mC]*dT*d[5mC]*dA*dT*dG*d[5mC]*d[5mC]*eT*kT*eA*kT*eA) [Compound 1198456]
YAP1 (% UTC) [12]: 21 % UTC

1198787 (antisense kA*eG*kT*dG*dT*dA*dT*dG*dT*d[5mC]*dA*dG*eA*eA*kG*kA) [Compound 1198787]
YAP1 (% UTC) [7]: 9 % UTC

1198529 (kT*kT*dA*dA*dA*dG*dT*dG*dT*dA*dT*eG*kT*e[5mC]*kA*eG; antisense) [Compound 1198529]
YAP1 (% UTC) [9]: 17 % UTC

1198271 (kT*kT*dA*dA*dA*dG*dT*dG*dT*dA*dT*eG*eT*e[5mC]*kA*kG) [Compound 1198271]
YAP1 (% UTC) [12]: 44 % UTC

1198336 (k[5mC]*kT*kT*dA*dT*dA*dT*dG*dG*dT*dT*dT*kT*eG*kT*eG; antisense) [Compound 1198336]
YAP1 (% UT) [4]: 31 % UT

1198828 (kT*kT*dT*dT*dA*d[5mC]*dA*dT*dT*dA*dG*kG*eA*kA*e[5mC]*kA; antisense) [Compound 1198828]
YAP1 (% UT) [5]: 59 % UT

1198719 (kG*eG*kA*dA*dA*dT*dT*dG*dT*d[5mC]*dT*d[5mC]*eA*eT*kG*k[5mC]; antisense) [Compound 1198719]
YAP1 (% UTC) [13]: 14 % UTC

1198388 (kT*dA*dT*dA*dA*d[5mC]*dT*dG*dG*dG*d[5mC]*kA*eA*kA*eT*kT; antisense) [Compound 1198388]
YAP1 (% UTC) [2]: 90 % UTC

1198248 (kA*kT*dA*dT*dG*dG*dT*dT*dT*dT*dG*eT*eG*eT*kG*kT; antisense) [Compound 1198248]
YAP1 (% UTC) [12]: 64 % UTC

1197176 (antisense kT*kG*kT*d[5mC]*dT*d[5mC]*dA*dT*dG*d[5mC]*d[5mC]*dT*dT*kA*kT*kA) [Compound 1197176]
YAP1 (% UT) [8]: 17 % UT

1198208 (kA*kG*dA*dG*dT*dA*dT*dG*dT*dG*dG*e[5mC]*eA*eA*kT*kA; antisense) [Compound 1198208]
YAP1 (% UTC) [10]: 25 % UTC

1198857 (kT*k[5mC]*dT*dT*dA*dT*dA*dT*dG*dG*dT*kT*eT*kT*eG*kT; antisense) [Compound 1198857]
YAP1 (% UT) [5]: 19 % UT

1198743 (k[5mC]*eT*kT*dT*dT*dA*d[5mC]*dA*dT*dT*dA*dG*eG*eA*kA*k[5mC]; antisense) [Compound 1198743]
YAP1 (% UTC) [13]: 86 % UTC

1198318 (kT*kT*kT*dG*dG*dA*dA*dG*dA*dT*d[5mC]*dT*kG*eA*kA*eA; antisense) [Compound 1198318]
YAP1 (% UT) [3]: 120 % UT

1197306 (k[5mC]*kA*kA*d[5mC]*mU*d[5mC]*dT*dT*dA*dT*dA*dT*dG*kG*kT*kT; antisense) [Compound 1197306]
YAP1 (% UT) [11]: 77 % UT
